The record followed here is paper PMC7994357, “Gene Expression, Biochemical Characterization of a sn-1, 3 Extracellular Lipase From Aspergillus niger GZUF36 and Its Model-Structure Analysis” (Frontiers in Microbiology, 2021).

The assay addresses T1, PEXANL1 (Aspergillus niger, UniProt A0A5C2GD86).
T1 construct: mature peptide (278 residues of 297, signal peptide removed), extra N-terminal residues, C-terminal 6xHis kept; secreted from Pichia pastoris GS115 (pPIC9K, codon-optimised), Ni-NTA purified, Endo Hf deglycosylated
T1 sequence (A0A5C2GD86 20-297): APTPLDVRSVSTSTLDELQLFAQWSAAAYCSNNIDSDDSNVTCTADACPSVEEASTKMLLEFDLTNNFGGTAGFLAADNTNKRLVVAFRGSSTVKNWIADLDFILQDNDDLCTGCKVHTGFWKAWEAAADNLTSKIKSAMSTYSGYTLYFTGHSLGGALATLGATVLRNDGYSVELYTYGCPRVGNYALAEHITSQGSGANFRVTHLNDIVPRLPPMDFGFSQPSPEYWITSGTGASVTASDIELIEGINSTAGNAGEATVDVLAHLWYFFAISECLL
Briefly: ultrasound-assisted solvent-free esterification, HPLC of glycerides. The format is biochemical. The conditions noted are these: 40 °C, ultrasound 200 W, 40 kHz.

Each structure is given as a SMILES string.

Turning to `OCC(O)CO` [glycerol], the “ultrasound-assisted solvent-free esterification, HPLC of glycerides” value (co-substrate oleic acid (glycerol to oleic acid 5:1 molar)) is “Ultrasound-assisted esterification of oleic acid (OA) with glycerol was studied”. Consider `CCCCCCCC/C=C\CCCCCCCC(=O)O` [oleic acid], for which the “ultrasound-assisted solvent-free esterification, HPLC of glycerides” value (co-substrate glycerol (glycerol to oleic acid 5:1 molar)) is on record as “Ultrasound-assisted esterification of oleic acid (OA) with glycerol was studied”.
